ChEMBL document CHEMBL3507680, “University of Dundee, Gates Library screen for HepG2 cell viability”

Test: Human HepG2 cell viability assay in 384 well format
Format: toxicity, cell-based
Set-up: dose 125 nL, time 70.5 hour; cytotoxicity at 70.5 h: concentration not given beside the values
Settings: HepG2 cells, read-out: Inhibition

In order of falling cytotoxicity at 70.5 h:
1. CN(CCCNC(=O)Nc1ccc(C#N)cc1)CC(F)(F)F  40.9%
2. Cc1nn(S(=O)(=O)c2ccc(Cl)cc2)c(C)c1C  38.4%
3. CN1CCC2(Cc3ccccc3CN(C(=O)CCN)C2)C1 (stereo not given)  27.3%
4. Cc1nc(C(=O)NS(=O)(=O)c2cccc(C#N)c2)cs1  17.6%
5. CC(O)C(=O)N1CCN(c2ccccc2Cl)C(=O)C1 (stereo not given)  17%
6. O=C1CN(Cc2cn(CC3CCCN(C4CCSCC4)C3)nn2)CCN1 (stereo not given)  16.1%
7. COCC(=O)NCc1cc(=O)n2c(n1)CN(CC1CCOC1)CCC2 (stereo not given)  15.2%
8. O=C(c1ccco1)N1CCc2c(nc(-c3ccncc3)[nH]c2=O)C1  13%
9. COCCCNC(=O)CN(C)Cc1ccc(F)cc1Cl  9.16%
10. COc1ccccc1C(O)CNC(=O)NCc1cccnc1OC (stereo not given)  6.04%
11. Cc1nnc(SCCC(=O)N(C)Cc2ccc(F)cc2F)[nH]1  4.62%
12. COc1cccnc1-c1ccc(F)c2c1OC(CN)C2 (stereo not given)  3.56%
13. COc1ccsc1C(=O)N1CCCC(n2nc(C)nc2C)C1 (stereo not given)  3.22%
14. Cn1ccnc1CNC(=O)N1CCCC(Cc2nccn2C)C1 (stereo not given)  2.69%
15. Cc1cc(C)n(-c2cc(N3CCN(C(=O)C(C)(C)C)CC3)nc(C)n2)n1  2.21%
16. NC(=O)CCc1cccc(C2CCNCC2)n1  1.83%
17. COc1nccc(N2CCN(Cc3ccc(C)cc3)C(=O)C2)c1C#N  1.75%
18. Cc1ccc(F)c(C(=O)N2C[C@@H](C(=O)O)[C@H](c3ccccc3)C2)c1Cl  1.54%
19. CN1CCOC[C@H]1c1nc(-c2ccncc2)c[nH]1  1.37%
20. CCN(Cc1ccc2c(c1)OCO2)S(=O)(=O)N(C)C  0.18%
21. CO[C@H]1CCN(C2CCC2)[C@@H]2CN(Cc3ccncc3)C[C@H]12  -0.868%
22. CN1CCOC(C(=O)Nc2ccc3c(c2)nc(C(C)(C)C)n3C)C1 (stereo not given)  -2.12%
23. CCS(=O)(=O)N1Cc2ncn(C)c2C(COCC2CCOCC2)C1 (stereo not given)  -3.96%
24. CC(=O)c1cccc(OCCCC(=O)N(C)CCC(F)(F)F)c1  -4.24%
25. Cc1ccc(CNC(=O)c2ccc(=O)n(C)n2)c(OCC2CC2)c1  -4.46%
26. NC(=O)CCCNC(=O)COc1ccccc1C(F)(F)F  -5.37%
27. COc1ccc(C(=O)C2CCCN(Cc3cc(C)n[nH]3)C2)c(OC)c1 (stereo not given)  -5.48%
28. CCN(Cc1noc(CC(C)C)n1)Cc1ccccc1C(=O)O  -6.37%
29. O=c1cc(CN2CCCC(CCc3c(F)cccc3F)C2)[nH]c(=O)[nH]1 (stereo not given)  -8.15%
30. OCCN1CCCCC1c1cc[nH]n1 (stereo not given)  -8.74%
31. O=C(CN1CCOC1=O)N1CC[C@@H](c2ccc3ccccc3c2)[C@H](O)C1  -9.33%
32. COc1ccc(OC)c(C(O)CN2CC(n3cccn3)C2)c1 (stereo not given)  -9.37%
33. Cc1cc(CN(C)C(=O)NCc2ccnc(SC(C)(C)C)c2)no1  -9.52%
34. CN(Cc1ccsc1)C(=O)c1cccc(F)c1  -9.63%
35. Cn1cnc2c1CCN(Cc1csc(Cc3ccccc3)n1)C2  -9.86%
36. Cc1c(C(=O)N2CCOCC2)n(C)c2ccc(Cl)cc12  -10.5%
37. COc1ccc2c(c1)CCCN2C(=O)NCCc1cnn(C)c1  -11.2%
38. CC(C)c1cc(C(=O)N2CCCC(c3cc(=O)nc4n3CCC4)C2)no1 (stereo not given)  -11.3%
39. CC(C)(CNC(=O)CCCOc1cccc(F)c1)C(N)=O  -14.4%
40. CCCC(=O)N(CCCN1CCOCC1)c1nc2c(C)c(C)ccc2s1  -14.7%
41. CC(=O)Nc1nc(C(=O)NCCOc2ccccc2F)cs1  -15.5%
42. CCc1nnc2ccc(N3CCN(S(=O)(=O)c4ccc(Cl)s4)CC3)nn12  -19%
43. CC(=O)N1CC[C@H]2OCC[C@@H](C(=O)N3CCCCO3)[C@@H]2C1  -20.9%
44. COCC(=O)N(Cc1ccc2cc[nH]c2c1)C1CC1  -21%
45. CC(C)c1nnc2ccc(N3CCCC(C(=O)Nc4nccs4)C3)nn12 (stereo not given)  -25.2%
